# Literature values in patent US10160759B2, “Hydroxyethyl sulfonate of cyclin-dependent protein kinase inhibitor, crystalline form thereof and preparation method therefor” (Jiangsu Hengrui Medicine Co., Ltd., priority 2015, dated 2018).
# Settings: patients, clinical trial NCT00721409
smiles,measurement,value
N#Cc1ccc(C(c2ccc(C#N)cc2)n2cncn2)cc1 [letrozole],progression-free survival (PFS),7.5 months
